Test results taken from the NIST ThermoML archive (doi:10.1021/je900525f).

Assay: xn = mol fraction of the nth substance listed
Settings: 101 kPa, Liquid; for viscosity: Capillary tube (Ostwald / Ubbelohde) method; for speed of sound: Pulse-echo method

N#CCc1ccccc1 [benzeneacetonitrile] + CCOC(C)=O
Settings | mass density, 303.15 K [kg/m3] | mass density, 308.15 K [kg/m3] | mass density, 313.15 K [kg/m3] | speed of sound, 303.15 K [m/s] | speed of sound, 308.15 K [m/s] | speed of sound, 313.15 K [m/s] | viscosity, 303.15 K [mPa·s] | viscosity, 308.15 K [mPa·s] | viscosity, 313.15 K [mPa·s]
x1 = 0.0198 | 892.4 | 887.4 | 880.8 | 1125.1 | 1109.3 | 1104.3 | 0.396 | 0.376 | 0.357
x1 = 0.1279 | 910.4 | 905.4 | 899.6 | 1173.8 | 1164.8 | 1159.7 | 0.483 | 0.458 | 0.431
x1 = 0.2425 | 926.8 | 922.7 | 916.9 | 1230.8 | 1218.2 | 1209.3 | 0.591 | 0.556 | 0.524
x1 = 0.3589 | 942.3 | 938 | 933.4 | 1286.7 | 1278.4 | 1263.6 | 0.714 | 0.668 | 0.627
x1 = 0.461 | 955.3 | 950.9 | 946.5 | 1326.1 | 1312.5 | 1303.1 | 0.839 | 0.781 | 0.733
x1 = 0.5665 | 967.5 | 963.3 | 958.5 | 1366.7 | 1355.1 | 1344.9 | 0.984 | 0.914 | 0.856
x1 = 0.6978 | 981.5 | 978.1 | 972.4 | 1417.8 | 1410.8 | 1400 | 1.18 | 1.092 | 1.017
x1 = 0.8328 | 994.9 | 991.8 | 985.2 | 1464.3 | 1461.3 | 1446.8 | 1.416 | 1.307 | 1.209
x1 = 0.9745 | 1006.5 | 1002.6 | 998.1 | 1508.3 | 1500.5 | 1490 | 1.695 | 1.554 | 1.43
x1 = 1 | 1008.8 | 1004.1 | 999.5 | 1519.2 | 1512.9 | 1503.4 | 1.761 | 1.602 | 1.489

CCOC(=O)CCl [ethyl chloroethanoate] + N#CCc1ccccc1
Settings | mass density, 303.15 K [kg/m3] | mass density, 308.15 K [kg/m3] | mass density, 313.15 K [kg/m3] | speed of sound, 303.15 K [m/s] | speed of sound, 308.15 K [m/s] | speed of sound, 313.15 K [m/s] | viscosity, 303.15 K [mPa·s] | viscosity, 308.15 K [mPa·s] | viscosity, 313.15 K [mPa·s]
x2 = 0 | 1139.3 | 1132.5 | 1125.9 | 1229.4 | 1212.4 | 1197.6 | 0.9692 | 0.8979 | 0.8341
x2 = 0.0205 | 1135.8 | 1129.8 | 1123.2 | 1235.7 | 1218.9 | 1204 | 0.9824 | 0.9115 | 0.8463
x2 = 0.1376 | 1119.2 | 1114.3 | 1107.6 | 1268.8 | 1254 | 1240.4 | 1.069 | 0.9906 | 0.9164
x2 = 0.2585 | 1102.6 | 1098.5 | 1091.7 | 1303.2 | 1291.5 | 1279 | 1.161 | 1.072 | 0.9925
x2 = 0.3793 | 1086.4 | 1083.3 | 1076.2 | 1338.7 | 1328.4 | 1316.6 | 1.254 | 1.155 | 1.07
x2 = 0.4843 | 1072.6 | 1069.8 | 1062.8 | 1370.5 | 1361.6 | 1348.5 | 1.336 | 1.229 | 1.139
x2 = 0.5875 | 1059.3 | 1056.4 | 1049.8 | 1400.6 | 1388.9 | 1381 | 1.419 | 1.302 | 1.207
x2 = 0.7152 | 1043.2 | 1040 | 1034 | 1438.2 | 1426.3 | 1419.9 | 1.523 | 1.394 | 1.292
x2 = 0.8434 | 1027.5 | 1023.7 | 1018.3 | 1476.9 | 1466 | 1457.4 | 1.628 | 1.488 | 1.379
x2 = 0.9764 | 1011.6 | 1007 | 1002.3 | 1516 | 1505.6 | 1495.8 | 1.74 | 1.584 | 1.471

CCOC(=O)CC#N [ethyl cyanoacetate] + N#CCc1ccccc1
Settings | mass density, 303.15 K [kg/m3] | mass density, 308.15 K [kg/m3] | mass density, 313.15 K [kg/m3] | speed of sound, 303.15 K [m/s] | speed of sound, 308.15 K [m/s] | speed of sound, 313.15 K [m/s] | viscosity, 303.15 K [mPa·s] | viscosity, 308.15 K [mPa·s] | viscosity, 313.15 K [mPa·s]
x2 = 0 | 1051.4 | 1046.5 | 1040.8 | 1396.9 | 1384.8 | 1367.7 | 2.186 | 1.962 | 1.77
x2 = 0.0223 | 1050.1 | – | 1039.8 | 1399.6 | – | 1370.4 | 2.179 | – | 1.764
x2 = 0.0233 | – | 1045.6 | – | – | 1386.5 | – | – | 1.955 | –
x2 = 0.1383 | 1044.4 | 1040.9 | 1034.8 | 1412.3 | 1397.7 | 1384.6 | 2.135 | 1.917 | 1.733
x2 = 0.2569 | 1038.8 | 1035.9 | 1029.9 | 1424.4 | 1410 | 1399.1 | 2.088 | 1.877 | 1.701
x2 = 0.3778 | 1033.4 | 1030.8 | 1025.3 | 1436 | 1423.7 | 1414.2 | 2.039 | 1.836 | 1.671
x2 = 0.4842 | 1028.9 | 1026.3 | 1021.1 | 1448 | 1436.3 | 1429.2 | 1.995 | 1.799 | 1.644
x2 = 0.5882 | 1024.6 | 1021.8 | 1016.8 | 1461.3 | 1450.4 | 1442 | 1.95 | 1.761 | 1.612
x2 = 0.7172 | 1019.4 | 1016.2 | 1011.4 | 1479.4 | 1468.5 | 1459.4 | 1.893 | 1.713 | 1.572
x2 = 0.8426 | 1014.6 | 1010.9 | 1005.8 | 1496.9 | 1487.6 | 1478 | 1.835 | 1.664 | 1.535
x2 = 0.9759 | 1009.7 | 1005.2 | 1000.4 | 1515.5 | 1508.7 | 1495.9 | 1.773 | 1.612 | 1.496
